According to patent US8846690B2, “Heterocyclic carboxylic acid derivatives having a 2,5-substituted oxazolopyrimidine ring” (Sanofi, priority 2010, dated 2014):

biological target: T1, human Edg-1 receptor (Homo sapiens, UniProt P21453); assay: GTP-γ-S assay using human Edg-1 receptors (scintillation proximity assay, CHO Flp-In membrane preparation); assay type: biochemical; details: test compound 10 μM; high control 10 μM S1P regarded as 100% activation; background-corrected; triplicate
T1 construct: FLAG (N); expressed in transfected cells; membrane preparation
T1 sequence (P21453 whole entry): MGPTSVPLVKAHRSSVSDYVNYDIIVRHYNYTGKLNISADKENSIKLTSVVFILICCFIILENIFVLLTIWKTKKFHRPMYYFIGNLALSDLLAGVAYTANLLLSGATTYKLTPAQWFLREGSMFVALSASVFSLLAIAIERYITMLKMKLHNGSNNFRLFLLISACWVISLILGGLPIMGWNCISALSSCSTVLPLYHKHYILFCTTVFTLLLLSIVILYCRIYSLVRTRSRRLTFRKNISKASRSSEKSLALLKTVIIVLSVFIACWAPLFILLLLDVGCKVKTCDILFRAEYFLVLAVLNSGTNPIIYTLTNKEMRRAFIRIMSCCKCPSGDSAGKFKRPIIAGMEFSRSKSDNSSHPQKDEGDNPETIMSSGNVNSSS
Source text: Determination of the Pharmacological Activity A) GTP-γ-S Assay Using Human Edg-1 Receptors
In order to determine the Edg-1 receptor activation by the compounds of the invention, a GTP-γ-S (guanosine 5′-[y-thio]triphosphate) assay for G-protein coupled receptor binding based on the scintillation proximity assay principle was used, employing a cell membrane preparation from a CHO Flp-In cell line which constitutively overexpresses the human Edg-1 receptor.
A membrane preparation was obtained by standard methods from the afore-described CHO Flp-In cell line constitutively overexpressing the human Edg-1 receptor. Briefly, the cryopreserved cells were taken in culture and grown until confluency in T175 cell culture flasks (Becton Dickinson, cat. no. 35 5001). Cell culture was stopped by washing with calcium-free phosphate-buffered saline (PBS; Gibco, cat. no. 14190), and cells were harvested with a rubber-policeman in 4° C. cold and calcium-free PBS supplemented with a protease inhibitor cocktail (complete protease inhibitor; Roche, cat. no. 1697498; 1 tablet per 50 ml) and subsequently centrifuged at 4° C. for 15 min at 1100×g (Heraeus Minifuge T). For cell lysis, the pellet was resuspended in a 4° C. cold hypotonic buffer consisting of 5 mM HEPES (Sigma-Aldrich, cat. no. H-0981), 1 mM EDTA (disodium salt; Merck, cat. No. 8418) supplemented with protease inhibitor cocktail (as above) in which cells were stored for another 15 min on ice. After lysis, cells were centrifuged at 4° C. for 10 min at 400×g (Heraeus Minifuge T). The pellet was disrupted in a Dounce homogenizer, diluted with the supernatant of the previous centrifugation and subsequently centrifuged at 4° C. for 10 min at 500×g (Heraeus Minifuge T) in order to separate nuclei and still intact cells from the membranes mainly present in the supernatant. The supernatant was then diluted in hypotonic buffer and centrifuged (Beckmann, Avanti J251) at approximately 18600×g for 2 h at 4° C. […] Protein concentration of the membrane preparation was determined in a sample by means of a commercial protein assay (Bio-Rad, DC Protein Assay, cat. nos. 500-0113, 500-0114, 500-0115).
The Edg-1 membrane preparation obtained in (b) was employed in a commercially available scintillation proximity assay (SPA) kit for G-protein coupled receptor binding from Amersham Biosciences/GE Healthcare (code RPNQ0210), in which ligand-induced binding of ^35S-radiolabled GTP-γ-S to the receptor-containing membrane, which is bound to scintillation beads, stimulates the emission of light and allows to quantify the in vitro activity of the Edg-1 agonistic compound. […]

Row | Structure (SMILES) | Edg-1 receptor activation in percent of the activation by 10 μM S1P (% Activation)
1 | O=C(O)[C@@H]1CCCN1C(=O)/C=C/c1ccc(-c2nc3cnc(Oc4ccccc4F)nc3o2)cc1 [Example 3, (S)-1-((E)-3-{4-[5-(2-Fluoro-phenoxy)-oxazolo[5,4-d]pyrimidin-2-yl]-phenyl}-acryloyl)-pyrrolidine-2-carboxylic acid] | 82%
2 | O=C(O)[C@@H]1CCCN1C(=O)CCc1ccc(-c2nc3cnc(Oc4ccccc4F)nc3o2)cc1 [Example 4, (S)-1-(3-{4-[5-(2-Fluoro-phenoxy)-oxazolo[5,4-d]pyrimidin-2-yl]-phenyl}-propionyl)-pyrrolidine-2-carboxyl is acid] | 103%
3 | Cc1cc(-c2nc3cnc(Oc4ccccc4F)nc3o2)cc(C)c1OCC(=O)N1CCC[C@H]1C(=O)O [Example 1, (S)-1-(2-{4-[5-(2-Fluoro-phenoxy)-oxazolo[5,4-d]pyrimidin-2-yl]-2,6-dimethyl-phenoxy}-acetyl)-pyrrolidine-2-carboxylic acid] | 115%
4 | Cc1cc(-c2nc3cnc(Oc4ccccc4F)nc3o2)cc(C)c1OC(C)C(=O)N1CCC[C@H]1C(=O)O (stereo partly drawn) [Example 2, (S)-1-(2-{4-[5-(2-Fluoro-phenoxy)-oxazolo[5,4-d]pyrimidin-2-yl]-2,6-dimethyl-phenoxy}-propionyl)-pyrrolidine-2-carboxylic acid] | 93%
